Data from patent US12018059B2, “Human amylin analog polypeptides and methods of use” (Intarcia Therapeutics, Inc., priority 2018, dated 2024).
Like-named read-outs stand apart in the source and are kept apart here. Positions of bridges follow the written chain, without caps; N, C: chain ends. Residues, ends and D or L forms follow the SMILES beside them.

Assay: Pharmacokinetics, 3-hour intravenous infusion of linear (non-acylated) polypeptides
Parameters: species or system Sprague-Dawley rats
Settings: rat, in vivo, 0.1 mg/kg
Description: Peptides were dissolved in sterile saline and administered as a 3-hour intravenous infusion to non-fasted male Sprague-Dawley rats (n=3 per group) via femoral vein cannula at a final dose of 0.100 mg/kg. […] Blood samples (approximately 250 μL) were collected for pharmacokinetic analysis via a jugular vein cannula at 0.25, 0.5, 1, 2, 3, 3.17, 3.33, 3.5, 4, 4.5, 5, and 6 hr post-start of infusion (long method) or at 1, 1.5, 2, 2.5, and 3 hr post-start of infusion (steady-state screening method). All samples were collected into microtainer tubes containing K2EDTA as anticoagulant and 25 μL of a protease inhibitor cocktail. Plasma was prepared by centrifugation and stored at −80° C. until analysis. The results of this analysis are shown in Table 9 and few exemplars in FIGS. 3a-3b.
A 60 μL aliquot of each plasma sample was placed into to a 96-well plate. To each well was added 6 μL of 0.5% Tween-20. Plates were then vortexed mixed for 10 minutes at 1200 rpm before 180 μL of 0.1% TFA in 2:1 ethanol:acetonitrile containing an appropriate internal standard was added to each well. Plates were vortex mixed for 5 min at 1300 rpm, and then centrifuged for 10 min at 2844×g. Supernatants (180 μL) were placed into a clean 96-well plate and evaporated under a nitrogen stream at 45° C. Residues were reconstituted in 80 μL of 20% acetonitrile (aq) containing 0.1% formic acid.
A […] aliquot of each plasma sample was diluted with […] of 10 mM ammonium acetate (pH 6.8) containing an appropriate internal standard and loaded onto an Oasis WCX microElution plate (Waters Corporation, Milford, MA) that had been pre-conditioned with […] of methanol and […] of deionized water. Samples were washed with […] of 5% ammonium hydroxide (aq) followed by […] of 20% acetonitrile in water. The analyte was eluted with […] of 5% formic acid in 75:25 acetonitrile:water. The eluent was dried under a nitrogen stream. Residues were reconstituted in 80 μL of 20% acetonitrile (aq) containing 0.1% formic acid.
All calibration standards were prepared in control rat plasma containing K2EDTA and protease inhibitor cocktail.
Samples and standards were analyzed by TurbolonSpray™ UPLC-MS/MS using a system consisting of a CTC HTS PAL auto-injector (Leap, Carrboro, NC), an Agilent Infinity 1290 system with column oven (Palo Alto, CA), a Valco switching valve (Houston, TX), and either an AB Sciex API 5600 TripleTOF™ or Sciex API 4000QTrap mass spectrometer (Framingham, MA). Samples were injected onto a 2.1×50 mm reverse phase C18 analytical column, typically a Waters CORTECS UPLC C18+, 1.6 μm (Waters Corporation, Milford, MA) or similar. […] Initial conditions consisted of 90% A and 10% B. The organic component was increased to 95% B over a period of 3-4 minutes, depending on the peptide. Typical flow rates were 600 μL/min. The column temperature was held constant at 40 or 50° C. Peptides were quantified by monitoring one or more product ions produced from a multiply charged parent ion.

[1] = linear polypeptides, 3-hour intravenous infusion, 0.100 mg/kg, male Sprague-Dawley rats, read-out: CL

| clearance [1] [mL/min/kg] | clearance (iv) [mL/min/kg] | Compound |
| --- | --- | --- |
| 17.5 | – | CC[C@H](C)[C@H](NC(=O)[C@@H]1CCCN1C(=O)CNC(=O)[C@H](Cc1ccccc1)NC(=O)[C@H](CCC(=O)O)NC(=O)[C@H](CC(N)=O)NC(=O)[C@H](CO)NC(=O)[C@H](CO)NC(=O)[C@H](CCCNC(=N)N)NC(=O)[C@H](Cc1c[nH]cn1)NC(=O)[C@H](CC(C)C)NC(=O)[C@H](CCC(=O)O)NC(=O)[C@H](CC(N)=O)NC(=O)[C@H](C)NC(=O)[C@H](CC(C)C)NC(=O)[C@H](CCCNC(=N)N)NC(=O)[C@H](CCC(N)=O)NC(=O)[C@@H](NC(=O)[C@H](C)NC(=O)[C@@H]1CSSC[C@H](NC(=O)[C@@H](N)CO)C(=O)N[C@@H](CC(N)=O)C(=O)N[C@@H]([C@@H](C)O)C(=O)N[C@@H](CO)C(=O)N[C@@H]([C@@H](C)O)C(=O)N1)[C@@H](C)O)C(=O)N[C@@H](CC(C)C)C(=O)N1CCC[C@H]1C(=O)N1CCC[C@H]1C(=O)N[C@H](C(=O)N[C@@H](CC(N)=O)C(=O)N[C@H](C(=O)NCC(=O)N[C@@H](CO)C(=O)N[C@@H](CC(N)=O)C(=O)N[C@H](C(=O)N[C@@H](Cc1ccc(O)cc1)C(N)=O)[C@@H](C)O)C(C)C)[C@@H](C)O [Compound A41] (H-SCNTSTCATQRLANELHRSSNEFGPILPPTNVGSNTY-NH2; disulfide 2-7) |
| – | 23.2 | CC[C@H](C)[C@H](NC(=O)[C@@H]1CCCN1C(=O)CNC(=O)[C@H](Cc1ccccc1)NC(=O)[C@H](CCC(=O)O)NC(=O)[C@H](CC(N)=O)NC(=O)[C@H](CO)NC(=O)[C@H](CO)NC(=O)[C@H](CCCCN)NC(=O)[C@@H](NC(=O)[C@H](CC(C)C)NC(=O)[C@H](Cc1ccccc1)NC(=O)[C@H](CC(N)=O)NC(=O)[C@H](C)NC(=O)[C@H](CC(C)C)NC(=O)[C@H](CCCNC(=N)N)NC(=O)[C@H](CCC(N)=O)NC(=O)[C@@H](NC(=O)[C@H](C)NC(=O)[C@@H]1CSSC[C@H](NC(=O)[C@@H](N)CO)C(=O)N[C@@H](CC(N)=O)C(=O)N[C@@H]([C@@H](C)O)C(=O)N[C@@H](CO)C(=O)N[C@@H]([C@@H](C)O)C(=O)N1)[C@@H](C)O)C(C)C)C(=O)N[C@@H](CC(C)C)C(=O)N1CCC[C@H]1C(=O)N1CCC[C@H]1C(=O)N[C@H](C(=O)N[C@@H](CCCCN)C(=O)N[C@H](C(=O)NCC(=O)N[C@@H](CO)C(=O)N[C@@H](CCC(=O)O)C(=O)N[C@H](C(=O)N[C@@H](Cc1ccc(O)cc1)C(N)=O)[C@@H](C)O)C(C)C)[C@@H](C)O [Compound A43] (H-SCNTSTCATQRLANFLVKSSNEFGPILPPTKVGSETY-NH2; disulfide 2-7) |
| 14.2 | – | CC[C@H](C)[C@H](NC(=O)[C@@H]1CCCN1C(=O)CNC(=O)[C@H](Cc1ccccc1)NC(=O)[C@H](CC(N)=O)NC(=O)[C@H](CC(N)=O)NC(=O)[C@H](CO)NC(=O)[C@H](CO)NC(=O)[C@H](Cc1c[nH]cn1)NC(=O)[C@@H](NC(=O)[C@H](CC(C)C)NC(=O)[C@H](CCC(=O)O)NC(=O)[C@H](CC(N)=O)NC(=O)[C@H](C)NC(=O)[C@H](CC(C)C)NC(=O)[C@H](CCCNC(=N)N)NC(=O)[C@H](CCC(N)=O)NC(=O)[C@@H](NC(=O)[C@H](C)NC(=O)[C@@H]1CSSC[C@H](NC(=O)[C@@H](N)CO)C(=O)N[C@@H](CC(N)=O)C(=O)N[C@@H]([C@@H](C)O)C(=O)N[C@@H](CO)C(=O)N[C@@H]([C@@H](C)O)C(=O)N1)[C@@H](C)O)C(C)C)C(=O)N[C@@H](CC(C)C)C(=O)N1CCC[C@H]1C(=O)N1CCC[C@H]1C(=O)N[C@H](C(=O)N[C@@H](CC(N)=O)C(=O)N[C@H](C(=O)NCC(=O)N[C@@H](CO)C(=O)N[C@@H](CC(N)=O)C(=O)N[C@H](C(=O)N[C@@H](Cc1ccc(O)cc1)C(N)=O)[C@@H](C)O)C(C)C)[C@@H](C)O [Compound A44] (H-SCNTSTCATQRLANELVHSSNNFGPILPPTNVGSNTY-NH2; disulfide 2-7) |
| 21.1 | – | CC[C@H](C)[C@H](NC(=O)[C@@H]1CCCN1C(=O)CNC(=O)[C@H](Cc1ccccc1)NC(=O)[C@H](CC(N)=O)NC(=O)[C@H](CC(N)=O)NC(=O)[C@H](CO)NC(=O)[C@H](CO)NC(=O)[C@H](CCCNC(=N)N)NC(=O)[C@H](Cc1c[nH]cn1)NC(=O)[C@H](CC(C)C)NC(=O)[C@H](CCC(=O)O)NC(=O)[C@H](CC(N)=O)NC(=O)[C@H](C)NC(=O)[C@H](CC(C)C)NC(=O)[C@H](CCCNC(=N)N)NC(=O)[C@H](CCC(N)=O)NC(=O)[C@@H](NC(=O)[C@H](C)NC(=O)[C@@H]1CSSC[C@H](NC(=O)[C@@H](N)CO)C(=O)N[C@@H](CC(N)=O)C(=O)N[C@@H]([C@@H](C)O)C(=O)N[C@@H](CO)C(=O)N[C@@H]([C@@H](C)O)C(=O)N1)[C@@H](C)O)C(=O)N[C@@H](CC(C)C)C(=O)N1CCC[C@H]1C(=O)N1CCC[C@H]1C(=O)N[C@H](C(=O)N[C@@H](CC(N)=O)C(=O)N[C@H](C(=O)NCC(=O)N[C@@H](CO)C(=O)N[C@@H](CC(N)=O)C(=O)N[C@H](C(=O)N[C@@H](Cc1ccc(O)cc1)C(N)=O)[C@@H](C)O)C(C)C)[C@@H](C)O [Compound A45] (H-SCNTSTCATQRLANELHRSSNNFGPILPPTNVGSNTY-NH2; disulfide 2-7) |
| – | 10.7 | CC[C@H](C)[C@H](NC(=O)[C@@H]1CCCN1C(=O)CNC(=O)[C@H](Cc1ccccc1)NC(=O)[C@H](CC(N)=O)NC(=O)[C@H](CC(N)=O)NC(=O)[C@H](CO)NC(=O)[C@H](CO)NC(=O)[C@H](CCCCN)NC(=O)[C@H](Cc1c[nH]cn1)NC(=O)[C@H](CC(C)C)NC(=O)[C@H](CCC(=O)O)NC(=O)[C@H](CC(N)=O)NC(=O)[C@H](C)NC(=O)[C@H](CC(C)C)NC(=O)[C@H](CCCNC(=N)N)NC(=O)[C@H](CCC(N)=O)NC(=O)[C@@H](NC(=O)[C@H](C)NC(=O)[C@@H]1CSSC[C@H](NC(=O)[C@@H](N)CO)C(=O)N[C@@H](CC(N)=O)C(=O)N[C@@H]([C@@H](C)O)C(=O)N[C@@H](CO)C(=O)N[C@@H]([C@@H](C)O)C(=O)N1)[C@@H](C)O)C(=O)N[C@@H](CC(C)C)C(=O)N1CCC[C@H]1C(=O)N1CCC[C@H]1C(=O)N[C@H](C(=O)N[C@@H](CCCCN)C(=O)N[C@H](C(=O)NCC(=O)N[C@@H](CO)C(=O)N[C@@H](CCC(=O)O)C(=O)N[C@H](C(=O)N[C@@H](Cc1ccc(O)cc1)C(N)=O)[C@@H](C)O)C(C)C)[C@@H](C)O [Compound A57] (H-SCNTSTCATQRLANELHKSSNNFGPILPPTKVGSETY-NH2; disulfide 2-7) |
| 22.8 | – | CC[C@H](C)[C@H](NC(=O)[C@@H]1CCCN1C(=O)CNC(=O)[C@H](Cc1ccccc1)NC(=O)[C@H](CC(N)=O)NC(=O)[C@H](CC(N)=O)NC(=O)[C@H](CO)NC(=O)[C@H](CO)NC(=O)[C@H](CCCNC(=N)N)NC(=O)[C@H](Cc1c[nH]cn1)NC(=O)[C@H](CC(C)C)NC(=O)[C@H](Cc1ccc(O)cc1)NC(=O)[C@H](CC(N)=O)NC(=O)[C@H](C)NC(=O)[C@H](CC(C)C)NC(=O)[C@H](CCCNC(=N)N)NC(=O)[C@H](CCC(N)=O)NC(=O)[C@@H](NC(=O)[C@H](C)NC(=O)[C@@H]1CSSC[C@H](NC(=O)[C@@H](N)CO)C(=O)N[C@@H](CC(N)=O)C(=O)N[C@@H]([C@@H](C)O)C(=O)N[C@@H](C)C(=O)N[C@@H](CO)C(=O)N1)[C@@H](C)O)C(=O)N[C@@H](CC(C)C)C(=O)N1CCC[C@H]1C(=O)N1CCC[C@H]1C(=O)N[C@H](C(=O)N[C@@H](CC(N)=O)C(=O)N[C@H](C(=O)NCC(=O)N[C@@H](CO)C(=O)N[C@@H](CC(N)=O)C(=O)N[C@H](C(=O)N[C@@H](Cc1ccc(O)cc1)C(N)=O)[C@@H](C)O)C(C)C)[C@@H](C)O [Compound A61] (H-SCNTASCATQRLANYLHRSSNNFGPILPPTNVGSNTY-NH2; disulfide 2-7) |
